For one data set, the system named is non-anesthetized mice. Nature of the data set: Prolonging effect upon the bleeding time (method of Duke). In kind it is in vivo. The note with it: Mus musculus, po, 1 h, 10 mgm/kg per os, 1 hour after administration, vs untreated animals, read-out: Prolongation of bleeding time in % after 1 hour. An excerpt:
2. The prolonging effect upon the bleeding time was ascertained by the method of Duke, J. Amer. Med. Assoc. 15, 1185 (1910). 10 mgm/kg of the test compound were given per os to non-anesthetized mice. One or three hours after administration of the test compound, about 0.5 mm was cut off from the tail of each animal, and the exuded blood was carefully soaked up with filter paper at intervals of 30 seconds. The number of drops of blood so obtained was used as a measure for the bleeding time compared to untreated animals (5 animals/test).

For another data set, the system named is white mice. The data set can be described thus: Acute toxicity after oral administration of a single dose. Format: in vivo. The note with it: observation time 14 days. As to the method: (§1) The acute toxicity of the test compounds was determined in white mice (observation time: 14 days) after oral administration of a single dose.
Experiment in data set [1]: as above
In kind it is in vivo. The note with it: mouse, in vivo, po, white mice, observation time 14 days. As to the method: as §1

The test system of data set [2] is thrombocyte aggregation in the platelet-rich plasma of healthy human test subjects. The data set can be described thus: Inhibition of collagen-induced thrombocyte aggregation (method of Born and Cross). In kind it is cell-based. Particulars: Homo sapiens, 10 min, 10^-4 mol/liter test compound, 10 minutes incubation at 37° C, vs untreated controls. An excerpt: 1. The inhibiting action upon thrombocyte aggregation was ascertained by the method of Born and Cross, J. Physiol. 170, 397 (1964), in the platelet-rich plasma of healthy human test subjects, by photometrically ascertaning and registering the rate of decrease of the optical density after addition of commercial collagen containing 1 mgm of collagen fibrils per ml. The angle of inclination of the density curve is a measure of the rate of aggregaton (V max.). The point on the curve which corresponded to the greatest lightpermeability was used for calculation of the optical density (o.D.).
The collagen doses were held to a minimum, but still sufficiently large to result in an irreversible aggregation. Prior to addition of collagen, each plasma sale was incubated for 10 minutes at 37° C with various amounts of the test compound. To provoke maximum aggregation, about 0.01 ml of the collagen solution was added to 1 ml of platelet-rich plasma.
The values in Table I below represent the inhibition of the aggregation rate in % (V max) and the alteration of the optical density (O.D.) in %, compared with the untreated controls, i.e. without addition of the test compound.

Like-named read-outs stand apart in the source and are kept apart here.

On to `O=C(O)CS(=O)(=O)Cc1ccc(-c2ccc(Cl)cc2)cc1` [V, [(4'-chloro-4-biphenylyl)-methylsulfonyl]-acetic acid, reference compound], for which the change in vivo at 10 mg/kg in the data set with non-anesthetized mice worked out at 3%. In addition, the “animals died (at the stated dose)” value in the data set with white mice is reported as 3 out of 10. For the same compound, the 50% lethal dose (LD50) at 336 h in data set [1] is more than 250 mg/kg. In addition, the inhibition at 100 µM was 6% in data set [2] (read-out: Inhibition in % of the aggregation rate (V max)) and 11% in data set [2] (read-out: Inhibition in %: alteration of the optical density (O.D.)).

Usually LD50 stands for the dose expected to kill half of the subjects tested. A low value points to a more toxic substance.

Values taken from patent US3993683A, “Biphenylyl derivatives” (Boehringer Ingelheim GmbH, priority 1974, dated 1976).
